Results: patent US8841317B2 (Emory University, priority 2010, dated 2014)
“Also recorded” adds a separate entry of the source. Where two headings read alike, the source gives them in different places.

What was measured:
THP-1 cells [1] = assay: LDH release into supernatant; type: cell-based, human; conditions: THP-1 cells incubated 48 hr with 50 μM; DMSO control 5 IU/L
Experimental: (§1) Biochim Biophys Acta 887: 13-22.]. […] Cellular aliquots (100 μl) were taken daily and cells were diluted 1:1 with the vital dye trypan blue 0.4% solution (Cellgro, Mediatech Inc, Herndon, Va.) in PBS and viable cells were counted. LDH release into the supernatant was also measured to assess the toxicity of the drugs. […] Cell Microbiol 7: 1251-1262.].

[2] = test system: human or murine macrophages; assay: Cellular viability (trypan blue exclusion, morphology, LDH); type: cell-based, human and murine
Experimental: as §1

[3] = test system: ScCr (TLR4-deficient) cells; assay: Sterile inflammation: nitric oxide release after murine TNFα stimulation; type: cell-based; conditions: 50 μM for 1 hr or overnight, then murine TNFα 1000-31.2 pg/ml
Experimental: (§2) TLR ligand concentrations ranging from (LPS: 10-0.31 picomolar (pM) and Pam3CSK4: 10-0.31 μg/ml) and non-TLR ligands (mouse IP-10 and TNFα: 1000-31 pg/ml) were made in duplicate wells using sterile PBS by serial fold dilutions in the 96-well tissue culture plates at 50 μl final volumes. Freshly grown THP-1cells, RAW264.7, ScCr, HEK-TLR2/6 and HEK-TLR4-MD2-CD14 transfected cells each adjusted to 10^6 cell/ml and 250 μl aliquots were dispensed into each well at a final cell density of 250×10^3 in the designated 96-well plates. The plates were then incubated overnight at 37° C. with 5% CO2 and humidity. Supernatants from stimulated cells were harvested and stored at −20° C. until further use.
(§3) Freshly grown adherent RAW 246.7 or 23ScCr (TLR4-deficient) macrophages were scraped by a cell scraper. Harvested cells were washed and re-suspended in Dulbecco's complete media, counted and adjusted to 10^6 cell/ml. […] aliquots were then dispensed into each well at final 250×10^3 cell density in the designated 96-well plates prior to stimulation with TLR ligands or recombinant cytokines as mentioned above. […] Nitric oxide release was quantified using the Griess chemical method as previously described [Zughaier S M, Tzeng Y L, Zimmer S M, Datta A, Carlson R W, et al. (2004) Neisseria meningitidis lipooligosaccharide structure-dependent activation of the macrophage CD14/Toll-like receptor 4 pathway. […]

THP-1 macrophages = assay: Respiratory burst ROS release (lucigenin chemiluminescence); type: cell-based, human
Experimental: The enhanced chemiluminescence method was used as previously described [Zughaier S M, Ryley H C, Jackson S K (1999) A melanin pigment purified from an epidemic strain of Burkholderia cepacia attenuates monocyte respiratory burst activity by scavenging superoxide anion. Infect Immun 67: 908-913.]. Briefly, freshly grown THP-1 cells were adjusted to 2×10^6/ml, transferred to two large tissue culture flasks labeled as primed or unstimulated. Two pmole/ml LPS were added to prime cells or left unstimulated as control cells. Both flasks were incubated overnight at 37° C. under 5% CO2. […] The cells were collected in universal tubes, washed twice with culture medium and resuspended in standard buffer (4.58 mM KH2PO4, 8.03 mM NaHPO4, 0.5 mM MgCl2, 0.45 mM CaCl2, 1% (w/v) glucose, 0.033% (w/v) KCl, 0.76% (w/v) NaCl and 0.1% (w/v) endotoxin-free bovine serum albumin (pH 7.3) at 2×10^6/ml. The chemiluminescence probe lucigenin (Sigma) was added to the cell suspension (25 μl/ml of cells from 1.0 mM stock solution) and mixed gently. Aliquots (150 μl) of the cellular mixture were transferred into at least quadruplicate wells of a white 96-well plate (FluoroNunc-PolySorp; Nalge Nunc International, Rochester, N.Y.). The respiratory burst was triggered with 50 μl of PMA (1 μM). Chemiluminescence was measured in relative light units (a measure of the number of photons generated by the reaction at each time point). Chemiluminescence was measured using a luminometer (ML3000, Dynatech Laboratories Inc. Chantilly, Va.) and the plate was read immediately and then at 2 min intervals for the next 90 min [Zughaier S M, Ryley H C, Jackson S K (1999) A melanin pigment purified from an epidemic strain of Burkholderia cepacia attenuates monocyte respiratory burst activity by scavenging superoxide anion. Infect Immun 67: 908-9131.

[4] = test system: RAW264 (TLR4-sufficient) cells; assay: Sterile inflammation: nitric oxide release after murine IP-10 (CXCL10) stimulation; type: cell-based; conditions: 50 μM for 1 hr or overnight, then murine IP-10 1000-31.2 pg/ml
Experimental: as §2, §3

THP-1 human macrophages = assay: TNFα release from TLR ligand-stimulated human macrophages (ELISA); type: cell-based; conditions: human and murine macrophages; TLR ligands LPS or Pam3CSK4
Experimental: as §2
(§4) Released cytokines TNFα and IL-6 and chemokines CXCL10 (IP-10), MIP-2α and IL-8 were quantified by DuoSet ELISA (R&D Systems, Minneapolis, Minn.) following the manufacturer's instructions as previously described [Zughaier S M, Zimmer S M, Datta A, Carlson R W, Stephens D S (2005) Differential induction of the toll-like receptor 4-MyD88-dependent and -independent signaling pathways by endotoxins. Infect Immun 73: 2940-2950.].

[5] = test system: HEK293 cells transfected with TLR2 alone or TLR2/6 receptors; assay: Pam3CSK4-induced IL-8 release (ELISA); type: cell-based, human; conditions: no drug = 1400 pg/ml
Experimental: as §2, §4

[6] = test system: human macrophage cells THP-1; assay: Autophagy by electron microscopy; type: cell-based; conditions: overnight, LPS 2 pM plus drug 50 μM
Experimental: Human macrophage cells were fixed for 1 hr with 2% glutaraldehyde in 0.1M sodium cacodylate buffer, rinsed in the same buffer and the post-fixed with 2% osmium tetroxide in the same buffer for 1 hr at room temperature. The samples were then dehydrated with a graded ethanol series through 3×100%, 2× in propylene oxide and embedded in Spurr's resin. Sections were stained with 1% uranyl acetate and lead citrate. Electron microscopy imaging was then performed at a magnification of 3597×.

[7] = doses as high as 300 mg/kg; cited from earlier work
[8] = test system: RAW 264.7 murine macrophages; assay: Nitric oxide release from TLR ligand-stimulated murine macrophages (Griess method); type: cell-based; conditions: TLR ligands LPS or Pam3CSK4
Experimental: as §2, §3

THP-1 cells [9] = assay: Detection of acidic vesicular organelles (acridine orange); type: cell-based, human; conditions: 24 hr treatment, acridine orange 1 μg/ml
Experimental: THP-1 cells were plated on cover slips and allowed to attach. Following treatments for 24 hr with DMSO alone (control), Red-Br-nos, LPS, Red-Br-nos and LPS, cells were stained with 1 μg/ml acridine orange for 15 min, washed with PBS, and examined under a Zeiss fluorescence microscope using a 40× objective lens [Herman-Antosiewicz A, Johnson D E, Singh S V (2006) Sulforaphane causes autophagy to inhibit release of cytochrome C and apoptosis in human prostate cancer cells. Cancer Res 66: 5828-5835.].

Row | LDH release (THP-1 cells [1]) [IU/L] | Structure (SMILES) | cellular toxicity / viability ([2]; human and murine macrophages) | nitric oxide release versus no drug [3] | ROS release, LPS primed cells (THP-1 macrophages; 50 μM added just prior to PMA-triggered respiratory burst) | ROS release, unprimed macrophages (THP-1 macrophages; 50 μM added just prior to respiratory burst) | ROS release, primed macrophages (THP-1 macrophages; added 2 hr prior to triggering the respiratory burst) | nitric oxide release versus no drug [4] | TLR-mediated TNFα release (THP-1 human macrophages) | IL-8 release [5] [pg/mL] | cellular toxicity / viability [2] | autophagy-related vacuolation (electron micrographs) [6] | toxicity [7] | TLR-mediated nitric oxide (NO) release [8] | acidic vesicular organelles (AVOs) (THP-1 cells [9])
1 | 7 | COc1ccc2c(c1OC)C(=O)O[C@@H]2[C@H]1c2c(cc3c(c2OC)OCO3)CCN1C [noscapine, (S)-6,7-dimethoxy-3-((R)-4-methoxy-6-methyl-5,6,7,8-tetrahydro[1,3]-dioxolo-[4,5-g]isoquinolin-5-yl)isobenzo-furan-1(3H)-one] | did not induce inflammatory responses or impair cellular viability | not significant | enhanced ROS release | not in unprimed macrophages | no change in ROS release | not significant |  |  |  |  |  |  | 
2 | 10 | COc1ccc2c(c1OC)CO[C@@H]2[C@H]1c2c(c(Br)c3c(c2OC)OCO3)CCN1C [Red-Br-nos, (R)-9-bromo-5-((S)-4,5-dimethoxy-1,3-dihydroisobenzofuran-1-yl)-4-methoxy-6-methyl-5,6,7,8-tetrahydro-[1,3]di-oxolo-[4,5-g]isoquinoline] |  |  |  |  |  |  | dampened | 400 | without evidence of cellular toxicity | increased vacuolation in the cytoplasm | non-toxic | dampened | confirmed the drug-induced autophagic activity; also recorded: formation (red fluorescence) of acridine orange-accumulating acidic vesicular organelles (AVOs)

Row | Structure (SMILES) | LDH release (THP-1 cells [1]) [IU/L] | cellular toxicity / viability ([2]; human and murine macrophages) | nitric oxide release versus no drug [3] | ROS release, LPS primed cells (THP-1 macrophages; 50 μM added just prior to PMA-triggered respiratory burst) | ROS release, unprimed macrophages (THP-1 macrophages; 50 μM added just prior to respiratory burst) | ROS release, primed macrophages (THP-1 macrophages; added 2 hr prior to triggering the respiratory burst) | nitric oxide release versus no drug [4] | TLR-mediated TNFα release (THP-1 human macrophages) | IL-8 release [5] [pg/mL] | cellular toxicity / viability [2] | autophagy-related vacuolation (electron micrographs) [6] | toxicity [7] | TLR-mediated nitric oxide (NO) release [8] | acidic vesicular organelles (AVOs) (THP-1 cells [9])
3 | COc1ccc2c(c1OC)C(=O)O[C@@H]2[C@H]1c2c(c(Br)c3c(c2OC)OCO3)CCN1C [Br-nos, (S)-3-((R)-9-bromo-4-methoxy-6-methyl-5,6,7,8-tetrahydro-[1,3]dioxolo[4,5-g]isoquinolin-5-yl)-6,7-dimethoxyiso-benzofuran-1(3H)-one] | 8 | without evidence of cellular toxicity |  |  |  |  |  | dampened | 650 |  |  | non-toxic | dampened | 
